In patent publication EP0517371B1, “Hair growth composition containing citric acid esters” (UNILEVER PLC, priority 1991, dated 1992):
Where a name gives a salt, the structure may show the parent alone.

Test system: albino rats
Assay: Rat hair growth trial (plucked hair at end of G-2 anagen after topical application)
Format: in vivo
Conditions: for LENGTH (length of hair) / WT/AREA (weight of hair per unit area of skin): G-2 anagen, topical twice daily, 6 rats per group, TBC 5% by weight in vanishing cream base, minoxidil 2% by weight in 65% v/v aqueous ethanol
Description: The effect of esters of citric acid on hair growth was assessed using albino rats as an animal model. The rats were chosen from as few litters as possible and were each approximately 27-30 days of age at the start of the trial. Each rat was housed individually to prevent licking.
In each comparison, 6 rats were used in each group and hair growth was assessed as follows: A small patch of normal skin (3cm x 3cm) on the upper back of each rat was selected and hairs were plucked from this area at the start of the trial (G-1 telogen). Test materials or control in a vanishing cream base or an alcoholic lotion, as appropriate, were then applied twice daily until the end of the next anagen, i.e. after a further 20 days from the start of trial (G-2 anagen). Each application of lotion amounted to about 50 mg.
At the end of G2-anagen, hair was plucked again from the same dorsal area, and this was used for measurement of: • i) weight of hair per unit area of skin, • ii) length of hair, and • iii) diameter of hair measured microscopically.
This procedure was employed to compare the effect of topical application to the rat model of a known hair growth promoter, namely minoxidil and a test material as used in accordance with the invention, namely tri-n-butyl citrate.
In this experiment minoxidil was employed at a concentration of 2% by weight in 65% v/v aqueous ethanol and tri-n-butyl citrate was employed at a concentration of 5% by weight in a vanishing cream base.

[1] = end of G-2 anagen, versus control (vanishing cream base)

SMILES	LENGTH (length of hair)	WT/AREA (weight of hair per unit area of skin)	hair diameter, comparison in words [1]	length of hair, comparison in words [1]	weight of plucked hair per unit area, comparison in words [1]
CCCCOC(=O)CC(O)(CC(=O)OCCCC)C(=O)OCCCC [TBC, tri-n-butyl citrate]	10.74 ± 1.16 mm	17.24 ± 0.97 mg/cm2	similar	marked increase over both control and minoxidil	marked increase over the control
Nc1cc(N2CCCCC2)nc(N)[n+]1[O-] [Minoxidil, reference compound]	8.85 ± 0.42 mm	16.27 ± 0.97 mg/cm2	–	–	–
